# Source: ChEMBL document CHEMBL4433257, “Novel conjugates of podophyllotoxin and coumarin: Synthesis, cytotoxicities, cell cycle arrest, binding CT DNA and inhibition of Topo IIβ” (Bioorg Med Chem Lett, 2019)
# Active and inactive are the calls of the source. No cut-off for these calls is given here.
# How the values were obtained:
# [1] = test system: A549; experiment: Cytotoxicity against human A549 cells incubated for 48 hrs by MTT assay; type: functional, cell-based; details: A549, 48 h
# [2] = test system: HepG2; experiment: Cytotoxicity against human HepG2 cells incubated for 48 hrs by MTT assay; type: functional, cell-based; details: HepG2, 48 h
# [3] = test system: HeLa; experiment: Cytotoxicity against human HeLa cells incubated for 48 hrs by MTT assay; type: functional, cell-based
# [4] = test system: LoVo; experiment: Cytotoxicity against human LoVo cells incubated for 48 hrs by MTT assay; type: functional, cell-based
# [5] = test system: LoVo; experiment: Antiproliferative activity against human LoVo cells assessed as nuclear changes at 10 uM incubated for 6 hrs by immunofluorescence microscopy assay; type: functional, cell-based
# [6] = test system: LoVo; experiment: Antiproliferative activity against human LoVo cells assessed as disorganization of microtubule network at 10 uM incubated for 6 hrs by immunofluorescence microscopy assay; type: functional, cell-based
# [7] = test system: LoVo; experiment: Cell cycle arrest in human LoVo cells assessed as accumulation at G1 phase at 5 uM incubated for 24 hrs by propidium iodide staining based flow cytometry analysis (reference value: 51.9%); type: functional
# [8] = test system: LoVo; experiment: Cell cycle arrest in human LoVo cells assessed as accumulation at G1 phase at 5 uM incubated for 72 hrs by propidium iodide staining based flow cytometry analysis relative to control; type: functional
# [9] = test system: LoVo; experiment: Induction of cell cycle arrest in human LoVo cells assessed as change in P21 gene expression level at 10 uM incubated for 24 hrs by Western blot analysis; type: functional, cell-based
# [10] = test system: LoVo; experiment: Induction of cell cycle arrest in human LoVo cells assessed as decrease in cyclin D1 gene expression level at 10 uM incubated for 24 hrs by Western blot analysis; type: functional, cell-based
# [11] = test system: LoVo; experiment: Induction of cell cycle arrest in human LoVo cells assessed as change in cdc2 gene expression level at 10 uM incubated for 24 hrs by Western blot analysis; type: functional, cell-based
# [12] = test system: LoVo; experiment: Induction of cell cycle arrest in human LoVo cells assessed as change in cyclin D1 gene expression level at 10 uM incubated for 24 hrs by Western blot analysis; type: functional, cell-based
# [13] = test system: LoVo; experiment: Induction of cell cycle arrest in human LoVo cells assessed as decrease in topo 2alpha expression level at 5 uM incubated for 12 hrs by Western blot analysis; type: functional, cell-based
# [14] = test system: LoVo; experiment: Induction of cell cycle arrest in human LoVo cells assessed as decrease in topo 2beta expression level at 5 uM incubated for 12 hrs by Western blot analysis; type: functional, cell-based
# [15] = test system: LoVo; experiment: Antiproliferative activity against human LoVo cells assessed as meshy microtubule network shrinkage around nucleus incubated for 6 hrs by immunofluorescence microscopy assay; type: functional, cell-based
# [16] = test system: LoVo; experiment: Antiproliferative activity against human LoVo cells assessed as abnormal mitotic spindle formation at 20 uM incubated for 6 hrs by immunofluorescence microscopy assay; type: functional, cell-based
# [17] = test system: LoVo; experiment: Antiproliferative activity against human LoVo cells assessed as induction of nuclear cleavage at 20 uM incubated for 6 hrs by immunofluorescence microscopy assay; type: functional, cell-based
# [18] = test system: LoVo; experiment: Antiproliferative activity against human LoVo cells assessed as disruption of microtubule organization at 10 to 20 uM incubated for 6 hrs by immunofluorescence microscopy assay; type: functional, cell-based
# [19] = test system: LoVo; experiment: Antiproliferative activity against human LoVo cells assessed as induction of nuclei damage at 10 to 20 uM incubated for 6 hrs by immunofluorescence microscopy assay; type: functional, cell-based
# [20] = test system: LoVo; experiment: Antiproliferative activity against human LoVo cells assessed as interference with mitosis at 10 to 20 uM incubated for 6 hrs by immunofluorescence microscopy assay; type: functional, cell-based
# [21] = test system: LoVo; experiment: Cell cycle arrest in human LoVo cells assessed as increase in accumulation at G1 phase incubated for 24 hrs by propidium iodide staining based flow cytometry analysis; type: functional
# [22] = test system: LoVo; experiment: Cell cycle arrest in human LoVo cells assessed as decrease in G2/M phase cell count incubated for 24 hrs by propidium iodide staining based flow cytometry analysis; type: functional
# [23] = test system: LoVo; experiment: Cell cycle arrest in human LoVo cells assessed as accumulation at G1 phase at 10 uM incubated for 24 hrs by propidium iodide staining based flow cytometry analysis (reference value: 51.9%); type: functional
# [24] = test system: LoVo; experiment: Cell cycle arrest in human LoVo cells assessed as accumulation at G1 phase at 5 uM incubated for 48 hrs by propidium iodide staining based flow cytometry analysis relative to control; type: functional
# [25] = test system: LoVo; experiment: Induction of cell cycle arrest in human LoVo cells assessed as increase in P21 gene expression level incubated for 24 hrs by Western blot analysis; type: functional, cell-based
# [26] = test system: LoVo; experiment: Induction of cell cycle arrest in human LoVo cells assessed as decrease in cyclin D1 gene expression level incubated for 24 hrs by Western blot analysis; type: functional, cell-based
# [27] = test system: LoVo; experiment: Induction of cell cycle arrest in human LoVo cells assessed as change in cdc2 gene expression level at 1 to 10 uM incubated for 24 hrs by Western blot analysis; type: functional, cell-based
# [28] = test system: LoVo; experiment: Induction of cell cycle arrest in human LoVo cells assessed as change in cyclin B1 gene expression level at 1 to 10 uM incubated for 24 hrs by Western blot analysis; type: functional, cell-based
# [29] = test system: Calf thymus DNA; experiment: Binding affinity to calf thymus DNA assessed as reduction in absorbance of DNA at 20 to 40 uM by UV/visible spectrophotometric analysis; type: nucleic-acid assay; details: Bos taurus
# [30] = test system: Calf thymus DNA; experiment: Binding affinity to calf thymus DNA assessed as reduction in absorbance of DNA at 50 uM using varying DNA level by UV/visible spectrophotometric analysis; type: nucleic-acid assay; details: Bos taurus
# [31] = test system: Calf thymus DNA; experiment: Binding affinity to calf thymus DNA assessed as reduction in compound emission intensity at 10 uM using varying DNA level by spectrofluorimetric analysis; type: nucleic-acid assay; details: Bos taurus
structure (smiles),measurement,setting,value
COc1cc([C@@H]2c3cc4c(cc3[C@@H](n3cc(CNc5cc(=O)oc6ccccc56)nn3)[C@H]3COC(=O)[C@H]23)OCO4)cc(OC)c1O,IC50,[1],21.4 µM
same,IC50,[2],27.5 µM
same,IC50,[3],27.2 µM
same,IC50,[4],38.6 µM
COc1cc([C@@H]2c3cc4c(cc3[C@@H](O[C@@H]3O[C@@H]5CO[C@@H](C)O[C@H]5[C@H](O)[C@H]3O)[C@H]3COC(=O)[C@H]23)OCO4)cc(OC)c1O [ETOPOSIDE],IC50,[1],25.6 µM
same,IC50,[2],10.5 µM
same,IC50,[4],14.9 µM
same,Activity,[5],inactive
same,Activity,[6],Active
same,Activity,[7],29.5%
same,Activity,[8],2%
same,Activity,[9],Active
same,Activity,[10],Active
same,Activity,[11],Active
same,Activity,[12],Active
same,Activity,[13],Active
same,Activity,[14],Active
COc1cc([C@@H]2c3cc4c(cc3[C@@H](n3cc(COc5cc(=O)oc6ccc(C)cc56)nn3)[C@H]3COC(=O)[C@H]23)OCO4)cc(OC)c1O,IC50,[1],> 100 µM
same,IC50,[2],40.2 µM
same,IC50,[3],45.4 µM
same,IC50,[4],33.2 µM
COc1cc([C@@H]2c3cc4c(cc3[C@@H](n3cc(CNc5cc(=O)oc6cc(Br)ccc56)nn3)[C@H]3COC(=O)[C@H]23)OCO4)cc(OC)c1O,IC50,[1],13.3 µM
same,IC50,[2],13.6 µM
same,IC50,[3],19.8 µM
same,IC50,[4],7.3 µM
COc1cc([C@@H]2c3cc4c(cc3[C@@H](n3cc(CNc5cc(=O)oc6ccc(Br)cc56)nn3)[C@H]3COC(=O)[C@H]23)OCO4)cc(OC)c1O,IC50,[1],8.6 µM
same,IC50,[2],9.3 µM
same,IC50,[3],15.2 µM
same,IC50,[4],8.7 µM
COc1ccc2c(NCc3cn([C@@H]4c5cc6c(cc5[C@@H](c5cc(OC)c(O)c(OC)c5)[C@H]5C(=O)OC[C@@H]54)OCO6)nn3)cc(=O)oc2c1,IC50,[1],28.1 µM
same,IC50,[2],11.1 µM
same,IC50,[3],48.2 µM
same,IC50,[4],12.6 µM
COc1cc([C@@H]2c3cc4c(cc3[C@@H](n3cc(COc5cc(=O)oc6ccccc56)nn3)[C@H]3COC(=O)[C@H]23)OCO4)cc(OC)c1O,IC50,[1],> 100 µM
same,IC50,[2],31.3 µM
same,IC50,[3],32.2 µM
same,IC50,[4],40.8 µM
COc1ccc2oc(=O)cc(OCc3cn([C@@H]4c5cc6c(cc5[C@@H](c5cc(OC)c(O)c(OC)c5)[C@H]5C(=O)OC[C@@H]54)OCO6)nn3)c2c1,IC50,[1],19.6 µM
same,IC50,[2],8 µM
same,IC50,[3],18.3 µM
same,IC50,[4],9.4 µM
COc1ccc2oc(=O)cc(NCc3cn([C@@H]4c5cc6c(cc5[C@@H](c5cc(OC)c(O)c(OC)c5)[C@H]5C(=O)OC[C@@H]54)OCO6)nn3)c2c1,IC50,[1],17.5 µM
same,IC50,[2],9.9 µM
same,IC50,[3],9.7 µM
same,IC50,[4],4.9 µM
same,Activity,[15],Active
same,Activity,[16],Active
same,Activity,[17],Active
same,Activity,[18],Active
same,Activity,[19],Active
same,Activity,[20],Active
same,Activity,[21],Dose-dependent effect
same,Activity,[22],Dose-dependent effect
same,Activity,[7],62%
same,Activity,[23],79%
same,Activity,[24],70.1%
same,Activity,[8],90%
same,Activity,[25],Dose-dependent effect
same,Activity,[26],Dose-dependent effect
same,Activity,[27],inactive
same,Activity,[28],inactive
same,Activity,[29],Active
same,Activity,[30],inactive
same,Activity,[31],Active
same,Activity,[13],Active
same,Activity,[14],Active
COc1cc([C@@H]2c3cc4c(cc3[C@@H](n3cc(CNc5cc(=O)oc6ccc(C)cc56)nn3)[C@H]3COC(=O)[C@H]23)OCO4)cc(OC)c1O,IC50,[1],34.8 µM
same,IC50,[2],17.2 µM
same,IC50,[3],38.3 µM
same,IC50,[4],76 µM
COc1ccc2c(OCc3cn([C@@H]4c5cc6c(cc5[C@@H](c5cc(OC)c(O)c(OC)c5)[C@H]5C(=O)OC[C@@H]54)OCO6)nn3)cc(=O)oc2c1,IC50,[1],40.3 µM
same,IC50,[2],27.5 µM
same,IC50,[3],> 100 µM
same,IC50,[4],> 100 µM
COc1cc([C@@H]2c3cc4c(cc3[C@@H](n3cc(COc5cc(=O)oc6cc(Br)ccc56)nn3)[C@H]3COC(=O)[C@H]23)OCO4)cc(OC)c1O,IC50,[1],23.8 µM
same,IC50,[2],15.6 µM
same,IC50,[3],> 100 µM
same,IC50,[4],24.2 µM
COc1cc([C@@H]2c3cc4c(cc3[C@@H](n3cc(COc5cc(=O)oc6ccc(Br)cc56)nn3)[C@H]3COC(=O)[C@H]23)OCO4)cc(OC)c1O,IC50,[1],27.7 µM
same,IC50,[2],4 µM
same,IC50,[3],20.1 µM
same,IC50,[4],19.8 µM
